In data set [1] the test system is Human multiple myeloma, KMS26. The data set can be described thus: Relative cell viability, KMS26. The settings on record: KMS26 cells, relative to untreated cells. Type of data set: cell-based. As to the method: (§1) After that, 10 μL of CCK-8 was added to each well, and the plate was incubated again at 37° C. in a 5% CO2 incubator for 2 hours.
(§2) In other words, when the survival rate of untreated cells (DMSO) is set at 100%, the relative cell survival rate in each group treated with the drug at different concentrations is indicated.

Data set [2] concerns NHDF (Normal Human Dermal Fibroblast) cells. The data set can be described thus: Doxorubicin/IGF-1 induced aging of NHDF cells (SA-β-gal, Ki-67 FACS). Type of data set: cell-based. As to conditions: 0.01, 1 μM; Doxorubicin 100 ng/ml + IGF-1 100 ng/ml, 7 days; FIG. 39. As to the method:
To confirm the anti-aging and rejuvenating effects of the compound GO15F of the present invention, a NHDF (Normal Human Dermal Fibroblast, Promocell) cell model was established by inducing aging with doxorubicin (Doxorubicin), and β-galactosidase activity and Ki-67 expression were analyzed in the cells. First, NHDF cells were seeded at 1×10^4 cells per well in a 12-well plate and stabilized for 24 hours. […] After pre-incubation, the medium was removed, and the cells were cultured for 7 days in medium containing Doxorubicin (100 ng/ml) and IGF-1 (100 ng/ml) with GO15F. During this process, the medium was replaced with fresh medium every 2 days. The cultured cells were washed with PBS, fixed with 1× fixation buffer for 15 minutes, washed again with PBS, and then 300 μL of 1× working SA-β-gal buffer was added to each well. The cells were incubated at 37° C. for 24 hours. After the reaction was terminated, the cells were washed with PBS, and the […] of β-gal-positive cells stained blue was observed and photographed using a light microscope. Additionally, to investigate the effect of the compound (GO15F) of the present invention on proliferation activity in aging-induced NHDF (Normal Human Dermal Fibroblast) cells, Ki-67 expression was measured via FACS analysis. First, NHDF cells were seeded at 1×10^4 cells per well in a 12-well plate and stabilized for 24 hours. […]

The subject of data set [3] is Human multiple myeloma, KMS12PE. The data set can be described thus: Relative cell viability, KMS12PE. Type of data set: cell-based. As to conditions: KMS-12-PE. As to the method:
as §1, §2

The test system of data set [4] is Balb/c mice with induced pulmonary fibrosis. In words: Bleomycin-induced pulmonary fibrosis animal model. It is filed as in vivo, mouse. The settings on record: vs BLM-treated group; for Collagen deposition (Masson's trichrome, Sirius red): FIG. 42; for Expression of α-SMA in lung tissue (IHC): FIG. 43. From the text: To evaluate the therapeutic efficacy of the compound according to the present invention against pulmonary fibrosis, an animal model of pulmonary fibrosis induced by bleomycin intratracheal administration was established.
For this purpose, 8-week-old male Balb/c mice were subjected to general anesthesia using an inhalation anesthetic (2-3% isoflurane in oxygen), followed by disinfection of the neck region, skin incision, and exposure of the trachea.
Bleomycin (Sigma-Aldrich, USA) was directly administered into the trachea at a concentration of 5 mg/kg in a solution of 100 μL.
Two days prior to Bleomycin administration, the compound of the present invention or the comparative drug was administered intraperitoneally at the specified concentration and dose, and the administration was continued once daily for a total of 14 days.
The experimental groups included Normal, Bleomycin alone (BLM), and BLM plus the compound of the present invention (BLM+GO88, 0.2 mg/kg).
Ten days later, the mice were euthanized humanely using carbon dioxide gas, the trachea was incised, and PBS was injected into the trachea to remove blood from the lungs.
The lung tissue washed with PBS was excised, fixed in 4% paraformaldehyde solution for 24 hours, and then paraffin blocks and tissue sections were prepared. The prepared sections were subjected to pathological analysis using H&E, Masson's trichrome, and Sirius red staining.
Additionally, immunohistochemical (IHC) staining was performed for α-SMA (α-smooth muscle actin), an indicator of lung fibroblast activation.

For data set [5], the system named is Human Pancreas Adenocarcinoma cell line, AsPC-1. The data set can be described thus: Relative cell viability CCK-8, AsPC-1. Type of data set: cell-based. As to conditions: 48 hours; for viability at 1 µM: ASPC1, 1 μM; for viability at 10 µM: ASPC1, 10 μM; for viability at 30 µM: ASPC1, 30 μM; for viability at 50 µM: ASPC1, 50 μM. On the procedure:
Human-derived breast cancer cell line MCF-7, human-derived lung cancer cell line A549, human-derived colorectal cancer cell line HCT-116, human pancreatic cancer cell line AsPC-1, glioblastoma cell line A172, and melanoma cell line Malme-3M were obtained from the Korean Cell Bank. gastric cancer cell line SNU-719, and bladder cancer cell line T24 were cultured in RPMI-1640 medium containing 10% FBS.
Following stabilization, the cells were harvested using Trypsin-EDTA treatment, centrifuged at 1,200 rpm for 3 minutes, the supernatant was removed, and the cells were resuspended in the same medium. They were then seeded into a 96-well plate (Costar 96-well cell culture plate, Corning) at 100 μL per well, and the conditions were adjusted as indicated in Table 5.
The cells were cultured in a 5% CO2 incubator at 37° C. for 24 hours, and after stabilization of the cells, each plate was washed with 200 μL of PBS per well and treated with 50 μL of culture medium per well.
as §1, §2

In data set [6] the test system is human lung fibroblasts MRC-5 cell lines. The data set can be described thus: TGF-β induced Collagen I expression in MRC-5 cells (Western blot). As to conditions: TGF-β 5 ng/ml; 0.5 μM and 1 μM; 24 hours; FIG. 44. Type of data set: cell-based. On the procedure:
To confirm that the compound of the present invention directly acts on fibrosis-related mechanisms, in vitro experiments were performed using human lung fibroblasts MRC-5 cell lines (Korea Cell Bank).
First, MRC-5 cells were seeded at 5×10^3 cells per well in a 6-well plate and stabilized for 24 hours.
Subsequently, experimental groups were established, including a control group, a group treated with TGF-β (5 ng/ml) alone, and groups treated with TGF-β and the compound GO88 from the present invention at concentrations of 0.5 μM and 1 μM, respectively.
After treating each group with the drugs for 24 hours, the cell medium was removed, and the cells were washed twice with cold PBS. Then, RIPA lysis buffer containing phosphatase inhibitor and protease inhibitor was added to each group to extract proteins.
The extracted proteins were incubated at 4° C. for 30 minutes, then centrifuged at 13,000 rpm for 15 minutes, and the supernatant was collected. The total protein concentration was measured using the BCA protein quantification method.
Subsequently, the proteins were separated by SDS-PAGE, transferred to a PVDF membrane, and Western blot analysis was performed.
The expression levels of Collagen I, a marker related to pulmonary fibrosis, were confirmed, with GAPDH used as an internal control.
(In general: Immunoblotting shows a protein as a band on a membrane.)

As for `Nc1ncccc1C(=O)NCCCCCCCCCCCCF` [Compound 57, 2-Amino-N-(12-fluoro-dodecyl)-nicotinamide], the viability – broadly, a read-out of living cells in per cent, often relative to untreated cells – at 10 µM worked out at 44.4% in data set [1] (Homo sapiens, KMS-26, 10 μM) and 41.7% in data set [3]. In data set [1] (Homo sapiens, KMS-26, 30 μM), this molecule returned a viability at 30 µM of 43.1%. Further, in data set [2], the “Number of β-gal-positive cells (SA-β-gal)” value is reported as “the number of β-gal-positive cells decreased”. In data set [4], the “Collagen deposition (Masson's trichrome, Sirius red)” value is recorded as “significantly reduced”. Also, the “Expression of α-SMA in lung tissue (IHC)” value in data set [4] is “significantly suppressed”.

In the case of `CC1(C)CN(CCCCCCCCCCCCC(=O)Nc2nc(N)c3[nH]cnc3n2)CCO1` [Compound 11, 12-[4-(2,2-dimethylmorpholin-4-yl)]dodecyl-N-(6-aminopurine-2-yl) carboxamide], the “Relative cell viability (%)” value in data set [1] (1 μM) is reported as 31.19%.

In the case of `Nc1ncccc1C(=O)NCCCCCCCCCCCCN1CCNCC1` [Compound 14, 2-Amino-N-(12-(piperazin-1-yl)dodecyl)nicotinamide], in data set [5], the viability at 1 µM is 43.1%, the viability at 10 µM was found to be 45.4%, the viability at 30 µM worked out at 36.8% and the viability at 50 µM came out at 30.5%. The “Protein expression of Collagen I” value in data set [6] is given as “inhibited in a concentration-dependent manner”. In data set [4], the “Collagen deposition (Masson's trichrome, Sirius red)” value was “significantly reduced” and the “Expression of α-SMA in lung tissue (IHC)” value is listed as “significantly suppressed”.

In data set [5], `Nc1nc(NC(=O)CCCCCCCCCCCCN2CCN(CCO)CC2)nc2nc[nH]c12` [Compound 15, 12-[4-(2-hydroxyethyl)piperazin-1-yl]dodecyl-N-(6-aminopurine-2-yl) carboxamide] gave a viability at 1 µM of 40.9%, a viability at 10 µM of 42.8%, a viability at 30 µM of 44.1% and a viability at 50 µM of 41.5%.

The values are drawn from patent publication US20260183274A1, “PDK1 REGULATORY COMPOUND AND COMPOSITION CONTAINING THE SAME” (PROVIBIO CO., LTD., priority 2024, published 2026).
